# From US9099654B2, “Benzofluorene compound, emission materials and organic electroluminescent device” (JNC Corporation, priority 2006, dated 2015)
# Experiment: Solubility in solvents at 25° C. (Table 1)
# Assay type: physicochemical
Solubility (25° C.) g/100 ml (ethyl acetate) [g/100 ml],Solubility (25° C.) g/100 ml (toluene) [g/100 ml],SMILES,"solubility in the solvents compared with compound (2) (ethyl acetate and toluene, comparison in words)"
1,8,c1ccc(C2(c3ccccc3)c3cc(-c4ccc5ccccc5c4)ccc3-c3c2cc(-c2ccc4ccccc4c2)c2ccccc32)cc1 [Compound (1-13)],apparently more excellent in solubility in the solvents than the compound (2)
0.2,0.9,"c1ccc(C2(c3ccccc3)c3cc(-c4ccc5ccccc5c4)ccc3-c3ccc4cc(-c5ccc6ccccc6c5)ccc4c32)cc1 [Compound (2), 3,9-dinaphthalene-2-yl-11,11-diphenyl-11H-benzo[a]fluorene, reference compound]",–
